According to patent publication US8124793B2, “Derivatives of ethylene methanedisulfonate as cancer chemotherapeutic agents” (priority 2007, dated 2012):

Columns and labels:
Format in all cases: cell-based
NCI-H322M = experiment: NCI screen, growth of human tumor cells: Non-Small Cell Lung NCI-H322M; settings: 10^−4 molar
Description: (§1) In the NCI screening process, each compound was tested and described by a minimum of 60 data points. The test data include, but are not limited to the type of cancer, the molar concentration used in the screen, and the percent growth of the cancer. In some cases, NMR and elemental analysis were used for structural assignment.

IGROVI = experiment: NCI screen, growth of human tumor cells: Ovarian Cancer IGROVI; settings: IGROVI
Outline: (§2)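 Growth of human tumor cells, expressed as percent, was determined in the NCI screen. Test data list the cancer type and the molar concentration applied.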

CAKI-1 = experiment: NCI screen, growth of human tumor cells: Renal Cancer CAKI-1; settings: CAKI-1, 10^−4 molar
Outline: as §2

human cancer cells = experiment: NCI screen summary over the cancers tested (negative growth of human cancer cells); settings: 10^−4 M conc.
Description: as §1
The derivatives in the tables are grouped using the same category as in the tables 1-6.

RPMI-8226 = experiment: NCI screen, growth of human tumor cells: Leukemia RPMI-8226; settings: RPMI-8226 (Leukemia), 10^−4 molar
Outline: as §2

SK-MEL-5 = experiment: NCI screen, growth of human tumor cells: Melanoma SK-MEL-5; settings: SK-MEL-5, 10^−4 molar
Outline: as §2

TK-10 = experiment: NCI screen, growth of human tumor cells: Renal Cancer TK-10; settings: TK-10 (Renal Cancer), 10^−4 molar
Description: as §1

SNB-19 = experiment: NCI screen, growth of human tumor cells: CNS Cancer SNB-19; settings: SNB-19, 10^−4 molar
Description: as §1

BT-549 = experiment: NCI screen, growth of human tumor cells: Breast Cancer BT-549; settings: BT-549 (Breast Cancer), 10^−4 molar
Outline: as §2

OVCAR-5 = experiment: NCI screen, growth of human tumor cells: Ovarian Cancer OVCAR-5; settings: OVCAR-5, 10^−4 molar
Outline: as §2

CCRF-CEM = experiment: NCI screen, growth of human tumor cells: Leukemia CCRF-CEM; settings: CCRF-CEM
Outline: as §2

HT29 = experiment: NCI screen, growth of human tumor cells: Colon Cancer HT29; settings: HT-29, 10^−4 molar
Description: as §1

OVCAR-3 = experiment: NCI screen, growth of human tumor cells: Ovarian Cancer OVCAR-3; settings: OVCAR-3, 10^−4 molar
Outline: as §2

SNB-75 = experiment: NCI screen, growth of human tumor cells: CNS Cancer SNB-75
Outline: as §2

SK-MEL-2 = experiment: NCI screen, growth of human tumor cells: Melanoma SK-MEL-2; settings: SK-MEL-2, 10^−4 molar
Outline: as §2

HOP-92 = experiment: NCI screen, growth of human tumor cells: Non-Small Cell Lung HOP-92; settings: HOP-92 (Non-Small Cell Lung), 10^−4 molar
Outline: as §2

HS 578T = experiment: NCI screen, growth of human tumor cells: Breast Cancer HS 578T; settings: H5-578T
Outline: as §2

U-251 = experiment: NCI screen, growth of human tumor cells: CNS Cancer U-251; settings: U251, 10^−4 molar
Outline: as §2

MCF7/ADR-RES = experiment: NCI screen, growth of human tumor cells: Breast Cancer MCF7/ADR-RES; settings: MCF7/ADR-RES, 10^−4 molar
Outline: as §2

DU-145 = experiment: NCI screen, growth of human tumor cells: Prostate Cancer DU-145; settings: DV-145, 10^−4 molar
Outline: as §2

MDA-MB-231/ATCC = experiment: NCI screen, growth of human tumor cells: Breast Cancer MDA-MB-231/ATCC; settings: MDA-MB-231/ATCC (Breast Cancer), 10^−4 molar
Description: as §1

SF-295 = experiment: NCI screen, growth of human tumor cells: CNS Cancer SF-295
Outline: as §2

UO-31 = experiment: NCI screen, growth of human tumor cells: Renal Cancer UO-31; settings: UO-31 (Renal Cancer), 10^−4 molar
Outline: as §2

HOP-62 = experiment: NCI screen, growth of human tumor cells: Non-Small Cell Lung HOP-62; settings: HOP-62, 10^−4 molar
Outline: as §2

KM12 = experiment: NCI screen, growth of human tumor cells: Colon Cancer KM12; settings: KM12, 10^−4 molar
Outline: as §2

SF-268 = experiment: NCI screen, growth of human tumor cells: CNS Cancer SF-268
Outline: as §2

HCT-116 = experiment: NCI screen, growth of human tumor cells: Colon Cancer HCT-116; settings: HCT-116, 10^−4 molar
Outline: as §2

NCI-H23 = experiment: NCI screen, growth of human tumor cells: Non-Small Cell Lung NCI-H23; settings: NCI-H23, 10^−4 molar
Outline: as §2

AS49/ATCC = experiment: NCI screen, growth of human tumor cells: Non-Small Cell Lung AS49/ATCC; settings: A549/ATCC, 10^−4 molar
Description: as §1

HCC-2998 = experiment: NCI screen, growth of human tumor cells: HCC-2998 (listed under Non-Small Cell Lung); settings: HCC-2998, 10^−4 molar
Description: as §1

SR = experiment: NCI screen, growth of human tumor cells: Leukemia SR; settings: SR
Outline: as §2

M14 = experiment: NCI screen, growth of human tumor cells: Melanoma M14; settings: M14, 10^−4 molar
Outline: as §2

SN12C = experiment: NCI screen, growth of human tumor cells: Renal Cancer SN12C; settings: SN12C (Renal Cancer), 10^−4 molar
Outline: as §2

COLO205 = experiment: NCI screen, growth of human tumor cells: Colon Cancer COLO205
Outline: as §2

UACC-257 = experiment: NCI screen, growth of human tumor cells: Melanoma UACC-257; settings: UACC-257 (Melanoma), 10^−4 molar
Outline: as §2

MOLT-4 = experiment: NCI screen, growth of human tumor cells: Leukemia MOLT-4; settings: MOLT-4 (Leukemia), 10^−4 molar
Outline: as §2

NCI-H460 = experiment: NCI screen, growth of human tumor cells: Non-Small Cell Lung NCI-H460; settings: NCI-H460 (Non-Small Cell Lung), 10^−4 molar
Outline: as §2

SK-MEL-28 = experiment: NCI screen, growth of human tumor cells: Melanoma SK-MEL-28; settings: SK-MEL-28 (Melanoma), 10^−4 molar
Outline: as §2

PC-3 = experiment: NCI screen, growth of human tumor cells: Prostate Cancer PC-3; settings: PC-3, 10^−4 molar
Description: as §1

MALME-3M = experiment: NCI screen, growth of human tumor cells: Melanoma MALME-3M; settings: MALME-3M
Outline: as §2

EKVX = experiment: NCI screen, growth of human tumor cells: Non-Small Cell Lung EKVX; settings: EKVX, 10^−4 molar
Outline: as §2

HCT-15 = experiment: NCI screen, growth of human tumor cells: Colon Cancer HCT-15; settings: HCT-15 (Colon Cancer), 10^−4 molar
Outline: as §2

UACC-62 = experiment: NCI screen, growth of human tumor cells: Melanoma UACC-62; settings: UACC-62, 10^−4 molar
Outline: as §2

OVCAR-4 = experiment: NCI screen, growth of human tumor cells: Ovarian Cancer OVCAR-4; settings: OVCAR-4 (Ovarian Cancer), 10^−4 molar
Outline: as §2

NCI-H522 = experiment: NCI screen, growth of human tumor cells: Non-Small Cell Lung NCI-H522
Outline: as §2

Substance: propane-1-[hydroxyhydrogensulfate]-3-(2-methylnaphthyl)-3,3-(ethylenedisulfonate) [NSC 693879]
- percent of growth of human tumor cells (NCI-H322M; NCI-H322M (Non-Small Cell Lung)): −71%
- % Growth (NCI-H322M; NCI-H322M): −71%
- % Growth (IGROVI; 10^−4 molar): −89%
- % Growth (IGROVI; 10^−5 molar): 50%
- % Growth (IGROVI; 10^−6 molar): 60%
- % Growth (IGROVI; 10^−7 molar): 52%
- % Growth (CAKI-1): −87%
- percentage of cancers that had −100% growth (human cancer cells): 20%
- Percentage of cancers showing negative growth cancers tested (human cancer cells; cancers with negative growth / cancers tested): 100%
- percent of growth of human tumor cells (RPMI-8226): −28%
- % Growth (SK-MEL-5): −100%
- percent of growth of human tumor cells (TK-10): −3%
- % Growth (SNB-19): −72%
- percent of growth of human tumor cells (BT-549): −34%
- % Growth (OVCAR-5): −100%
- % Growth (CCRF-CEM; 10^−4 molar): −33%
- % Growth (CCRF-CEM; 10^−5 molar): 52%
- % Growth (HT29): −86%
- % Growth (OVCAR-3): −100%
- % Growth (SNB-75; SNB-75, 10^−4 molar): −62%
- % Growth (SNB-75; SNB-75, 10^−5 molar): 55%
- % Growth (SK-MEL-2): −99%
- percent of growth of human tumor cells (HOP-92): −35%
- % Growth (HS 578T; 10^−4 molar): −49%
- % Growth (HS 578T; 10^−5 molar): 55%
- % Growth (U-251): −100%
- % Growth (MCF7/ADR-RES): −54%
- % Growth (DU-145): −100%
- percent of growth of human tumor cells (MDA-MB-231/ATCC): −54%
- % Growth (SF-295; SF-295, 10^−4 molar): −82%
- % Growth (SF-295; SF-295, 10^−5 molar): 58%
- percent of growth of human tumor cells (UO-31): −48%
- % Growth (HOP-62): −65%
- % Growth (KM12): −92%
- % Growth (SF-268; SF-268, 10^−4 molar): −56%
- % Growth (SF-268; SF-268, 10^−5 molar): 59%
- % Growth (HCT-116): −79%
- % Growth (NCI-H23): −65%
- % Growth (AS49/ATCC): −62%
- % Growth (HCC-2998): −78%
- % Growth (SR; 10^−4 molar): −19%
- % Growth (SR; 10^−5 molar): 13%
- % Growth (M14): −100%
- percent of growth of human tumor cells (SN12C): −57%
- % Growth (COLO205; COLO205, 10^−4 molar): −73%
- % Growth (COLO205; COLO205, 10^−5 molar): 57%
- percent of growth of human tumor cells (UACC-257): −32%
- percent of growth of human tumor cells (MOLT-4): −16%
- percent of growth of human tumor cells (NCI-H460): −58%
- percent of growth of human tumor cells (SK-MEL-28): −5%
- % Growth (PC-3): −100%
- % Growth (MALME-3M; 10^−4 molar): −100%
- % Growth (MALME-3M; 10^−5 molar): 44%
- % Growth (MALME-3M; 10^−6 molar): 62%
- % Growth (EKVX): −90%
- percent of growth of human tumor cells (HCT-15): −39%
- % Growth (UACC-62): −66%
- percent of growth of human tumor cells (OVCAR-4): −40%
- % Growth (NCI-H522; NCI-H522, 10^−4 molar): −100%
- % Growth (NCI-H522; NCI-H522, 10^−5 molar): 35%
- % Growth (NCI-H522; NCI-H522, 10^−6 molar): 63%
